Experimental data published in patent US12226375B1, “Method of treatment and selection of patients benefiting from agomelatine based on EEG measurements” (Alto Neuroscience, Inc., priority 2023, dated 2025).

What was measured:
[1] = system: patients with major depressive disorder; test: Open-label trials of adjunctive agomelatine 25 mg at bedtime in MDD (NCT05118750, NCT05157945): MADRS change by EEG-predicted response; assay type: in vivo, human
Procedure: The inventors conducted two parallel open-label clinical trials of agomelatine at 25 mg once at bedtime in patients with major depressive disorder (NCT05118750 and NCT05157945, whose data was pooled in these analyses). […] Patients were evaluated over the course of eight weeks of treatment.
EEG data were collected at rest (encompassing both eyes open and eyes closed conditions) prior to treatment using a 19-channel EEG system covering the conventional 10-20 electrode locations. A total of 107 patients with moderate to severe depression (MADRS≥20 and PHQ-9≥10) had EEG data (107 with eyes open (REO) EEG, 105 with eyes closed (REC) EEG). Quality control assessments were conducted, yielding 105 REO patient datasets and 103 REC patient datasets. […] The training dataset consisted of 60 REO patient datasets and 60 REC patient datasets. The holdout set consisted of 49 REO patient datasets and 46 REC patient datasets.
In order to compile these individual signals into a single EEG composite entropy model for prediction of treatment outcome, the inventors conducted 10-fold cross-validated machine learning using elastic net regularization against an outcome of high versus low response to agomelatine. […]
The Cohen's d effect sizes at these weeks are all >0.4, indicating a substantial effect size for the prediction, especially considering that the meta-analytically calculated all-comer (i.e., unselected depression patients) effect size for the difference in treatment response to agomelatine (as monotherapy) versus placebo is d=0.26 (Cipriani et al., Lancet., 2018, 391 (10128): 1357-1366, PMID: 29477251).
Given the approximate 50% prevalence of positivity on the EEG machine learning model, one can estimate the agomelatine-placebo difference in EEG-predicted agomelatine responders by adding the all-comer effect size (d=0.26) to the enrichment in EEG-predicted responders over the all-comer population. This enrichment is calculated by halving the effect size between EEG-predicted responders and non-responders, since the average of these two groups is the all-comer population. […]

sleep measures = conditions: in contrast to an SSRI which did not change these measures; cited from earlier work
[2] = system: unselected depression patients; conditions: meta-analytically calculated; cited from earlier work
circadian rhythm = conditions: due to melatonergic agonism; cited from earlier work

Structure (SMILES) | Cohen's d effect size, predicted responders vs non-responders, change in MADRS scores ([1]; EEG sample entropy machine learning model, cross-validation left-out data of training dataset, all weeks (FIG. 2A)) | Cohen's d, predicted agomelatine responders versus non-responders, observed change in MADRS scores ([1]; EEG sample entropy model, holdout dataset, weeks 4, 6 and 8 (FIG. 2B)) | MADRS change, high vs low Pz low-gamma sample entropy patients ([1]; Pz electrode, 30-40 Hz, z≥0.27, full study sample, all weeks (FIG. 2C)) | sleep measures assessed using actigraphic measurements (sleep measures) | all-comer effect size d, treatment response to agomelatine (as monotherapy) versus placebo [2] | effect on circadian rhythm (circadian rhythm)
COc1ccc2cccc(CCNC(C)=O)c2c1 [agomelatine, N-[2-(7-methoxynaphthalen-1-yl)ethyl]acetamide] | > 0.4 | > 0.4 | strong and statistically significant prediction of treatment outcome across all weeks | improve sleep measures | 0.26 | phase advance circadian rhythm
COc1ccc2[nH]cc(CCNC(C)=O)c2c1 [melatonin] |  |  |  |  |  | phase advance circadian rhythm
